{"source": "ChEMBL document CHEMBL1159357", "about": "“Labdane and kaurane diterpenoids from Plectranthus fruticosus” (2003)", "system": "Staphylococcus aureus", "test": "Antimicrobial activity against Staphylococcus aureus", "assay_type": "functional", "note": "Active and inactive are the calls of the source. The calls are words filed in the database; no cut-off is given here."}
{"smiles": "C=C/C(C)=C/C[C@H]1C(=C)CC[C@H]2C(C)(C)[C@@H](OC(C)=O)[C@H](O)C[C@]12C", "values": [{"measurement": "Activity", "value": "inactive"}]}
{"smiles": "C=C1C[C@@]23CC[C@H]4[C@@](C)(CCC[C@@]4(C)C(=O)OC)[C@@H]2C[C@H](OC(C)=O)[C@H]1C3", "values": [{"measurement": "Activity", "value": "inactive"}]}
{"smiles": "C=C/C(C)=C\\C[C@@H]1C(=C)CC[C@@H]2C(C)(C)C[C@@H](OC(C)=O)C[C@@]12C", "values": [{"measurement": "Activity", "value": "inactive"}]}
{"smiles": "C[C@@]1(CO)CCC[C@]2(C)[C@@H]1CC[C@@]13C[C@H](CC[C@@H]21)[C@]1(C)O[C@H]31", "values": [{"measurement": "Activity", "value": "inactive"}]}
{"smiles": "COC(=O)[C@]1(C)CCC[C@@]2(C)[C@@H]3CC[C@H]4C[C@@]3(CC[C@@H]21)[C@H]1O[C@@]41C", "values": [{"measurement": "Activity", "value": "inactive"}]}
{"smiles": "C[C@@]12CCC[C@@](C)(C(=O)O)[C@H]1CC[C@@]13C[C@H](CC[C@@H]21)[C@]1(C)O[C@H]31", "values": [{"measurement": "MIC", "value": 31.2, "unit": "µg/mL"}]}
{"smiles": "COC(=O)[C@]1(C)CCC[C@@]2(C)[C@@H]3C[C@H](OC(C)=O)[C@H]4C[C@]3(C=C4C)CC[C@@H]21", "values": [{"measurement": "Activity", "value": "inactive"}]}
